Results as given in ChEMBL document CHEMBL1132678, “Imidazole-containing diarylether and diarylsulfone inhibitors of farnesyl-protein transferase” (Bioorg Med Chem Lett, 1999).

Assays:
Rat1 = assay: Inhibition of proliferation of v-Ha-ras-transformed RAT1 cells on poly-(HEMA)-coated plates; assay type: functional, cell-based; conditions: Rattus norvegicus
[1] = target: Protein farnesyltransferase (Bos taurus, UniProt P29702+P49355); assay: Inhibition of bovine Farnesyltransferase in vitro.; assay type: protein-complex assay
[2] = target: Protein farnesyltransferase (Homo sapiens, UniProt P49354+P49356); assay: Inhibition of Farnesyltransferase; assay type: protein-complex assay

| IC50 [1] | IC50 [2] | Structure (SMILES) | IC50 (Rat1) |
| --- | --- | --- | --- |
| 0.001 µM |  | Cc1cc(NCc2cncn2Cc2ccc(C#N)cc2)ccc1S(=O)(=O)c1ccccc1 | 0.016 µM |
| 0.093 µM |  | Cc1ncc(CNc2ccc(S(=O)(=O)c3ccccc3)cc2)n1Cc1ccc(C#N)cc1 | 0.177 µM |
| > 100 µM |  | c1ccc(Oc2ccc(NCc3cnc[nH]3)cc2)cc1 |  |
| 3.2 µM |  | O=[N+]([O-])c1ccc(CN(Cc2c[nH]cn2)c2cccc(Oc3ccccc3)c2)cc1 |  |
| 0.042 µM |  | CCCCN(Cc1cncn1Cc1ccc(C#N)cc1)c1ccc(Oc2ccccc2)cc1 |  |
| > 100 µM |  | CCCCN(Cc1cn(Cc2ccc(C#N)cc2)cn1)c1ccc(Oc2ccccc2)cc1 |  |
| 0.008 µM |  | Cc1cc(N(Cc2cnc(C)n2Cc2ccc(C#N)cc2)CC2CC2)ccc1S(=O)(=O)c1ccccc1 | 0.109 µM |
| 1.3 µM |  | N#Cc1ccc(Cn2cncc2CNc2ccc(Oc3ccccc3)cc2)cc1 |  |
| 0.019 µM |  | O=C(O)c1cccc(Oc2cccc(N(Cc3cnc[nH]3)Cc3cnc[nH]3)c2)c1 |  |
| 0.0007 µM |  | N#Cc1ccc(Cn2cncc2CNc2ccc(S(=O)(=O)c3ccccc3)cc2)cc1 | 0.031 µM |
| 0.008 µM |  | N#Cc1ccc(CN(Cc2cncn2Cc2ccc(C#N)cc2)c2ccc(Oc3ccccc3)cc2)cc1 |  |
| > 100 µM |  | CCCCN(Cc1cnc[nH]1)c1ccc(Oc2ccccc2)cc1 |  |
| 0.0004 µM |  | N[C@H](CS)CNc1ccc(Oc2cccc(C(=O)O)c2)cc1 |  |
| 0.232 µM |  | Cc1cc(N(Cc2cnc(C)n2Cc2ccc(C#N)cc2)C(=O)C2CC2)ccc1S(=O)(=O)c1ccccc1 |  |
| 0.00045 µM |  | Cc1cc(NCc2cnc(C)n2Cc2ccc(C#N)cc2)ccc1S(=O)(=O)c1ccccc1 | 0.028 µM |
| 0.00025 µM |  | N[C@@H](CS)CNc1cccc(Oc2cccc(C(=O)O)c2)c1 |  |
| 1 µM |  | O=[N+]([O-])c1ccc(CN(Cc2cnc[nH]2)c2ccc(Oc3ccccc3)cc2)cc1 |  |
| 0.0026 µM |  | O=C(O)c1cccc(Oc2ccc(N(Cc3c[nH]cn3)Cc3c[nH]cn3)cc2)c1 |  |
| 0.081 µM |  | Cc1ncc(CN(Cc2ccc(C#N)cc2)c2ccc(S(=O)(=O)c3ccccc3)cc2)n1Cc1ccc(C#N)cc1 |  |
|  | 0.525 µM | CSCC[C@H](NC(=O)[C@H](Cc1c[nH]c2ccccc12)NC(=O)[C@@H](NC(=O)[C@@H](N)CS)C(C)C)C(=O)O |  |
| 0.14 µM |  | CCCCN(Cc1cncn1Cc1ccc(C#N)cc1)c1ccc(Sc2ccccc2)cc1 |  |
| 0.0008 µM |  | N#Cc1ccc(Cn2cncc2CNc2ccc(C(=O)c3ccccc3)cc2)cc1 |  |
